Measured values published in US20240124460A1, “METHODS AND COMPOSITIONS FOR TARGETED PROTEIN DEGRADATION” (Ranok Therapeutics (Hangzhou) Co. Ltd., priority 2020, published 2024).

Tests used:
[1] = tested on: U-87 MG human glioblastoma; test: U87 MG CCK-8 proliferation assay; type: cell-based; settings: Homo sapiens, U-87 MG, 72 h, U-87 MG cells, read-out: U87MG CCK-8
Outline: (§1)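 Inhibition is derived from CCK-8 absorbance of compound-treated cells relative to DMSO-treated cells, after subtracting a cell-free medium/DMSO background. Test concentrations span 20 μM down to 1.02 nM in 3-fold steps, and lines are cultured as ATCC recommends.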

[2] = tested on: MV-4-11 human acute myeloid leukemia; test: MV-4-11 CCK-8 proliferation assay; type: cell-based; settings: Homo sapiens, MV4-11; MV-4-11 cells, 72 hr
Outline: as §1

[3] = target: T1, HSP90α protein (Homo sapiens, UniProt P07900); test: HSP90α-binding FP (FITC) assay; settings: FP competition with FITC-geldanamycin
T1 construct: purchased BPS Bioscience #50298
Method: Binding of test compounds to HSP90α protein was measured by fluorescent polarization (FP) using the HSP90α (N-terminal) Assay Kit (BPS Bioscience, #50298), following the manufacturer's instructions, except as noted. Fluorescently labeled HSP90-binding compounds, either the provided FITC-geldanamycin (5 nM final concentration) or RNK04010, a triazolone-based HSP90 binding small molecule labeled with BODIPY through a piperazine-phenyl linker (5 nM final concentration) were employed. A 2.5-fold serial dilution of each test compound ranging from 20 μM to 5.2 nM was assayed for binding to HSP90α. After the final step of adding HSP90α protein to each assay well, plates were mixed by brief shaking, incubated at 25° C. for 120 min for FITC-geldanamycin or 300 min for RNK04010, and fluorescence was measured using a PerkinElmer EnVision Plate Reader.

[4] = tested on: ERBB2; test: ERBB2 (HER2) flow cytometry protein degradation assay in BT-474 cells; type: cell-based, human; settings: DC50, BT-474 cells, 24 hr
Method: To analyze total ERBB2 expression by flow cytometry, cells were detached with trypsin, washed, counted and treated with 10 μl/10^6 cells PE-conjugated, anti-ERBB2 monoclonal antibody (R&D Systems, #FAB1129P) for 30 min at 25° C. in dark. Cells were then washed, resuspended in 200 μl 1% paraformaldehyde and analyzed by flow cytometry.
% Inhibition=100−(D−B)/(S−B)*100%. • S: Fluorescence intensity of cells with antibody • D: Fluorescence intensity of compound-treated cells with antibody • B: Fluorescence intensity of cells without antibody

[5] = target: MAPK7 (Homo sapiens, UniProt Q13164); test: MAPK7 Western blot protein degradation assay in U-87 MG cells; type: cell-based; set-up: U-87 MG human glioblastoma cells, which express MAPK7; endogenous in cells; host or cells: U-87 MG; settings: 48 hr
Method: U-87 MG human glioblastoma cells were seeded in 6- or 12-well tissue culture plates, and after 1 hr, test compounds were added at various concentrations and incubated at 37° C./5% CO2 for 48 hr. Cells were then washed with cold PBS, aspirated and cold RIPA buffer containing a protease/phosphatase inhibitor cocktail was added to lyse cells. After centrifugation, the total protein concentrations of cell lysates were determined using the BCA protein assay. Samples were normalized for equivalent protein concentrations, 5×SDS-PAGE loading buffer added and denatured at 100° C. for 10 min. 20 μl of each sample/well was loaded on a SDS-PAGE gel and electrophoresed for 20 min at 80 V, then 120 V for 1.5 hr. Gels were then electroblotted to nitrocellulose membranes using a wet-transfer method at 250 mA for 2.5 hr. Membranes were incubated with blocking buffer for 1 hr and washed 3 times with TBST for 5 min. Membranes were then incubated with anti-MAPK7 (anti-ERK5; Cell Signaling Technology, #12950) and anti-3-Actin (Cell Signaling Technology, #3700) monoclonal antibodies diluted in blocking buffer at 4° C. overnight per the manufacturer's recommendations. After washing 3 times, blots were incubated with appropriately labeled secondary antibodies for 1 hr at room temperature and washed again. Fluorescence imaging and quantitation was performed using a LI-COR Odyssey. Results was analyzed using GraphPad Prism 7 software.

[6] = target: T1, HSP90α protein; test: HSP90α-binding FP (BODIPY) assay; settings: FP competition with BODIPY-labeled RNK04010
Outline: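 Fluorescence polarization measured competition with N-terminal human HSP90α, using either FITC-geldanamycin or BODIPY-labelled triazolone RNK04010 as tracer (5 nM final each). Compounds were tested in 2.5-fold dilutions from 20 μM to 5.2 nM, with incubation at 25 °C for 120 min (FITC) or 300 min (BODIPY).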

MAPK7, sequence (Q13164 whole entry): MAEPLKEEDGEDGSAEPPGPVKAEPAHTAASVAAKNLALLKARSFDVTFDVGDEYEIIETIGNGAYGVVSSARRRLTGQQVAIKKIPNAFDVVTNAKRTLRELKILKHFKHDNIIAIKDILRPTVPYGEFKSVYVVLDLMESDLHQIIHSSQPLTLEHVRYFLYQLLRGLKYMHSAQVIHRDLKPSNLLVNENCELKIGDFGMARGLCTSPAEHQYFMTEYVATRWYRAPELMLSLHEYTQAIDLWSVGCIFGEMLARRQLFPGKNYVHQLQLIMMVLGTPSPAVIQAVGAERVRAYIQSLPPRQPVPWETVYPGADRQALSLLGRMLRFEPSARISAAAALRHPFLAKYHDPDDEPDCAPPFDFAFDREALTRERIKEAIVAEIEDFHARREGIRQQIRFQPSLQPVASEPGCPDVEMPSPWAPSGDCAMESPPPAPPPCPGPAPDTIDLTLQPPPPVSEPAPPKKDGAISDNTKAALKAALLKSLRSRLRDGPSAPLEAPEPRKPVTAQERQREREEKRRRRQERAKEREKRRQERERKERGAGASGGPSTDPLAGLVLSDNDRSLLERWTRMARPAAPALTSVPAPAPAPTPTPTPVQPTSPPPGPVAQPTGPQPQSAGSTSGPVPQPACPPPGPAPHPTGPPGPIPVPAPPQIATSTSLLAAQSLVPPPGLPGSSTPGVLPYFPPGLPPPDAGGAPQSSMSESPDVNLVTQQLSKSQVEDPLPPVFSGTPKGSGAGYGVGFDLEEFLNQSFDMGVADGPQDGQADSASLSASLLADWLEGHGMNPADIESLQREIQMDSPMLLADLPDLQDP

SMILES | EC50 [1] | EC50 [2] | IC50 [3] | MAPK7 degradation (30 nM) [5] | MAPK7 degradation (100 nM) [5] | MAPK7 degradation (1000 nM) [5] | IC50 [6] | MAPK7 degradation (300 nM) [5] | ERBB2 degradation [4]
CCOc1cc(N2CCC(C(=O)NCCc3ccc(-n4c(O)nnc4-c4cc(C(C)C)c(O)cc4O)cc3)CC2)ccc1Nc1ncc2c(n1)N(C)c1ccccc1C(=O)N2C [Compound 008, N-(4-(3-(2,4-dihydroxy-5-isopropylphenyl)-5-hydroxy-4H-1,2,4-triazol-4-yl)phenethyl)-1-(4-((5,11-dimethyl-6-oxo-6,11-dihydro-5H-benzo[e]pyrimido[5,4-b][1,4]diazepin-2-yl)amino)-3-ethoxyphenyl)piperidine-4-carboxamide] | 0.1 to 1 µM | < 0.1 µM | 0.1 to 1 µM | – | – | – | – | – | –
CCOc1cc(N2CCC(C(=O)N3CCC(CN4CCN(Cc5ccc(-n6c(C(=O)NCC(F)(F)F)nnc6-c6cc(C)c(O)cc6O)cc5)CC4)CC3)CC2)ccc1Nc1ncc2c(n1)N(C)c1ccccc1C(=O)N2C [Compound 018, 5-(2,4-dihydroxy-5-methylphenyl)-4-(4-((4-((1-(1-(4-((5,11-dimethyl-6-oxo-6,11-dihydro-5H-benzo[e]pyrimido[5,4-b][1,4]diazepin-2-yl)amino)-3-ethoxyphenyl)piperidine-4-carbonyl)piperidin-4-yl)methyl)piperazin-1-yl)methyl)phenyl)-N-(2,2,2-trifluoroethyl)-4H-1,2,4-triazole-3-carboxamide] | 0.1 to 1 µM | < 0.1 µM | – | C (< 33% degradation) | C (< 33% degradation) | A (>66% degradation) | 0.1 to 1 µM | – | B (DC50 = 100-1000 nM)
CCOc1cc(N2CCC(C(=O)N3CCC(CN4CCN(Cc5ccc(-n6c(C(=O)NCC(F)(F)F)nnc6-c6cc(CC)c(O)cc6O)cc5)CC4)CC3)CC2)ccc1Nc1ncc2c(n1)N(C)c1ccccc1C(=O)N2C [Compound 022, 4-(4-((4-((1-(1-(4-((5,11-dimethyl-6-oxo-6,11-dihydro-5H-benzo[e]pyrimido[5,4-b][1,4]diazepin-2-yl)amino)-3-ethoxyphenyl)piperidine-4-carbonyl)piperidin-4-yl)methyl)piperazin-1-yl)methyl)phenyl)-5-(5-ethyl-2,4-dihydroxyphenyl)-N-(2,2,2-trifluoroethyl)-4H-1,2,4-triazole-3-carboxamide] | 0.1 to 1 µM | < 0.1 µM | – | C (< 33% degradation) | C (< 33% degradation) | A (>66% degradation) | 0.1 to 1 µM | B (33-66% degradation) | B (DC50 = 100-1000 nM)
CCOc1cc(N2CCC(C(=O)NCc3ccc(-n4c(O)nnc4-c4cc(C(C)C)c(O)cc4O)cc3F)CC2)ccc1Nc1ncc2c(n1)N(C)c1ccccc1C(=O)N2C [Compound 036, N-(4-(3-(2,4-dihydroxy-5-isopropylphenyl)-5-hydroxy-4H-1,2,4-triazol-4-yl)-2-fluorobenzyl)-1-(4-((5,11-dimethyl-6-oxo-6,11-dihydro-5H-benzo[e]pyrimido[5,4-b][1,4]diazepin-2-yl)amino)-3-ethoxyphenyl)piperidine-4-carboxamide] | > 1 µM | < 0.1 µM | – | C (< 33% degradation) | C (< 33% degradation) | A (>66% degradation) | 0.1 to 1 µM | B (33-66% degradation) | B (DC50 = 100-1000 nM)
CCOc1cc(N2CCC(C(=O)N3CCC(CN4CCN(Cc5ccc(-n6c(C(=O)N[C@H](C)C(F)(F)F)nnc6-c6cc(CC)c(O)cc6O)cc5)CC4)CC3)CC2)ccc1Nc1ncc2c(n1)N(S(C)(=O)=O)c1ccccc1C(=O)N2C [Compound 123, (R)-4-(4-((4-((1-(1-(3-ethoxy-4-((5-methyl-11-(methylsulfonyl)-6-oxo-6,11-dihydro-5H-benzo[e]pyrimido[5,4-b][1,4]diazepin-2-yl)amino)phenyl)piperidine-4-carbonyl)piperidin-4-yl)methyl)piperazin-1-yl)methyl)phenyl)-5-(5-ethyl-2,4-dihydroxyphenyl)-N-(1,1,1-trifluoropropan-2-yl)-4H-1,2,4-triazole-3-carboxamide] | 0.1 to 1 µM | < 0.1 µM | – | – | – | – | 0.1 to 1 µM | – | B (DC50 = 100-1000 nM)
CCOc1cc(N2CCC(C(=O)N3CCC(CN4CCN(Cc5ccc(-n6c(C(=O)N[C@@H](C)C(F)(F)F)nnc6-c6cc(CC)c(O)cc6O)cc5)CC4)CC3)CC2)ccc1Nc1ncc2c(n1)N(S(C)(=O)=O)c1ccccc1C(=O)N2C [Compound 124, (S)-4-(4-((4-((1-(1-(3-ethoxy-4-((5-methyl-11-(methylsulfonyl)-6-oxo-6,11-dihydro-5H-benzo[e]pyrimido[5,4-b][1,4]diazepin-2-yl)amino)phenyl)piperidine-4-carbonyl)piperidin-4-yl)methyl)piperazin-1-yl)methyl)phenyl)-5-(5-ethyl-2,4-dihydroxyphenyl)-N-(1,1,1-trifluoropropan-2-yl)-4H-1,2,4-triazole-3-carboxamide] | 0.1 to 1 µM | < 0.1 µM | – | – | – | – | 0.1 to 1 µM | – | B (DC50 = 100-1000 nM)

Now from value to molecule, other results behind:

EC50 [1] | EC50 [2] | IC50 [3] | MAPK7 degradation (30 nM) [5] | MAPK7 degradation (100 nM) [5] | MAPK7 degradation (1000 nM) [5] | IC50 [6] | MAPK7 degradation (300 nM) [5] | SMILES | ERBB2 degradation [4]
> 1 µM | 0.1 to 1 µM | – | C (< 33% degradation) | C (< 33% degradation) | C (< 33% degradation) | 0.1 to 1 µM | C (< 33% degradation) | CCOc1cc(N2CCC(C(=O)N3CCC(CN4CCN(Cc5ccc(-n6c(O)nnc6-c6ccc(O)cc6O)cc5)CC4)CC3)CC2)ccc1Nc1ncc2c(n1)N(C)c1ccccc1C(=O)N2C [Compound 021, 2-((4-(4-(4-((4-(4-(3-(2,4-dihydroxyphenyl)-5-hydroxy-4H-1,2,4-triazol-4-yl)benzyl)piperazin-1-yl)methyl)piperidine-1-carbonyl)piperidin-1-yl)-2-ethoxyphenyl)amino)-5,11-dimethyl-5,11-dihydro-6H-benzo[e]pyrimido[5,4-b][1,4]diazepin-6-one] | –
– | – | – | C (< 33% degradation) | B (33-66% degradation) | A (>66% degradation) | – | A (>66% degradation) | CCOc1cc(N2CCC(C(=O)N3CCN(Cc4ccc(-n5c(O)nnc5-c5cc(C(C)C)c(O)cc5O)cc4)CC3)CC2)ccc1Nc1ncc2c(n1)N(C)c1ccccc1C(=O)N2C.Cl [Compound 043, 2-((4-(4-(4-(4-(3-(2,4-dihydroxy-5-isopropylphenyl)-5-hydroxy-4H-1,2,4-triazol-4-yl)benzyl)piperazine-1-carbonyl)piperidin-1-yl)-2-ethoxyphenyl)amino)-5,11-dimethyl-5,11-dihydro-6H-benzo[e]pyrimido[5,4-b][1,4]diazepin-6-one] | B (DC50 = 100-1000 nM)
